Reference: US6534524B1, “Indazole compounds and pharmaceutical compositions for inhibiting protein kinases, and methods for their use” (Agouron Pharmaceuticals, Inc., priority 1999, dated 2003)
Where two headings read alike, the source gives them in different places.

Key:
[1] = Human liver microsome (HLM) assay; assay type: in vitro ADME; details: human liver microsomes, 5 μM test compound
Protocol: Human Liver Microsome (HLM) Assay Compound metabolism in human liver microsomes was measured by LC-MS analytical assay procedures as follows. […] (3 tubes per test compound-triplicate). […] The samples were then transferred to separate polypropylene microcentrifuge tubes and centrifuged at 14000 g for 10 min. (Fisher Micro […] M0017580). For each replicate (#1-3) at each timepoint (0 and 2 h), an aliquot sample of each test compound was combined into a single HPLC vial insert (6 total samples) for LC-MS analysis, which is described below.

[2] = Determination of inhibitor concentration in mouse plasma after intraperitoneal and oral dosing; assay type: in vivo
How it was run: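 Mice dosed intraperitoneally or orally; blood taken by ocular bleed at 0.5, 1 and 4 h and by intracardiac puncture at 7 h. Plasma extracted with ethyl acetate after internal standard and NaOH addition, analysed by HPLC or LC-MS against a mouse-plasma standard curve.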

[3] = target: unphosphorylated VEGF-R2Δ50 (FLVK) (Homo sapiens, UniProt P35968, DEL940-989/E990V); assay: VEGF-R2 coupled spectrophotometric assay, unphosphorylated VEGF-R2Δ50 (FLVK); details: FLVK Ki, Table 1
[4] = IP, 25 mg/kg, vehicle PEG400:H2O pH 2.3 60:40
[5] = PO, 50 mg/kg, vehicle PEG400:H2O pH 2.3 60:40
[6] = female, IP, 25 mg/kg, vehicle PEG400:H2O pH 2.3 60:40, read-out: Cmin (7 hr conc.)
[7] = female, PO, 50 mg/kg, vehicle PEG400:H2O pH 2.3 60:40, read-out: Cmin (7 hr conc.)
[8] = IP, 25 mg/kg, vehicle PEG400:H2O pH 2.3 30:70
[9] = PO, 50 mg/kg, vehicle PEG400:H2O pH 2.3 30:70
[10] = female, IP, 25 mg/kg, vehicle PEG400:H2O pH 2.3 30:70, read-out: Cmin (7 hr conc.)
[11] = female, PO, 50 mg/kg, vehicle PEG400:H2O pH 2.3 30:70, read-out: Cmin (7 hr conc.)
[12] = PO, 25 mg/kg, vehicle PEG400:H2O pH 2.3 30:70
[13] = female, PO, 25 mg/kg, vehicle PEG400:H2O pH 2.3 30:70
[14] = female, PO, 25 mg/kg, vehicle PEG400:H2O pH 2.3 30:70, read-out: Cmin (7 hr conc.)
[15] = female, IP, 25 mg/kg, vehicle PEG400:H2O pH 2.3 30:70

Chain of unphosphorylated VEGF-R2Δ50 (FLVK) (P35968 with tags, fused parts or gaps DEL940-989/E990V limits assumed): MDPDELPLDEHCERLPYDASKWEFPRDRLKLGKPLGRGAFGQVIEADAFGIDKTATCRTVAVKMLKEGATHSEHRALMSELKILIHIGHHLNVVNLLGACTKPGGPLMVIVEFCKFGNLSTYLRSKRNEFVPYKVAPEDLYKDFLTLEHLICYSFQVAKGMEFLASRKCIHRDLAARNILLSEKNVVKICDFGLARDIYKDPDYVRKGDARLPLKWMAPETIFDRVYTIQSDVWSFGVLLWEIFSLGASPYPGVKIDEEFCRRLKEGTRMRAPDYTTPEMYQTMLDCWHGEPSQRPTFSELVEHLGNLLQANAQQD

Structure (SMILES)	% remain (HLM, 2 h) [1] [%]	Ki [3] [nM]	AUClast [2, 8] [ng·h/mL]	plasma half-life (T1/2) [2, 8] [h]	AUClast [2, 9] [ng·h/mL]	plasma half-life (T1/2) [2, 9]	concentration at 7 h [2, 10] [ng/mL]	concentration at 7 h [2, 11] [ng/mL]	other results
O=C(Nc1cccc(C(=O)c2ccc3c(/C=C/c4ccccc4)n[nH]c3c2)c1)c1ccncc1 [Example 19(j), 6-[3-(Pyridin-4-ylcarboxamido)benzoyl]-3-E-styryl-1H-indazole]	66	0.33							AUClast [2, 4]: 23205 ng·h/mL; Cmax [2, 4]: 5764 ng/mL; plasma half-life (T1/2) [2, 4]: 1.6 h; AUClast [2, 5]: 5889 ng·h/mL; Cmax [2, 5]: 1937 ng/mL; plasma half-life (T1/2) [2, 5]: 1.2 h; concentration at 7 h [2, 6]: 456 ng/mL; concentration at 7 h [2, 7]: 63 ng/mL
O=C(c1cccc(NC(=O)c2cccc(Cl)n2)c1)c1ccc2c(/C=C/c3ccccc3)n[nH]c2c1 [Example 19(m), 6-[3-(6-Chloropyridin-2-ylcarboxamido)benzoyl]-3-E-styryl-1H-indazole]	61	0.68							
O=C(Nc1cccc(Oc2ccc3c(/C=C/c4cccs4)n[nH]c3c2)c1)c1ccccc1 [Example 30(a), 6-[3-Benzamidophenoxy]-3-E-[2-(thien-2-yl)ethenyl]-1H-indazole]	64	1.7							
O=C(Nc1cccc(Oc2ccc3c(/C=C/c4ccco4)n[nH]c3c2)c1)c1ccccc1 [Example 30(c), 6-[3-Benzamidophenoxy]-3-E-[2-(fur-2-yl)ethenyl]-1H-indazole]	54	0.83							
O=C(Nc1cccc(Oc2ccc3c(/C=C/c4ccccn4)n[nH]c3c2)c1)c1ccccc1 [Example 31(a), 6-[3-Benzamidophenoxy]-3-E-[2-(pyridin-2-yl)ethenyl]-1H-indazole]	58	0.29	47538	2.4	40863	1.6 h	1910	834	Cmax [2, 8]: 13018 ng/mL; Cmax [2, 9]: 14499 ng/mL
Cn1ccnc1C(=O)Nc1cccc(Oc2ccc3c(/C=C/c4ccccn4)n[nH]c3c2)c1 [Example 31(e), 6-[3-((1-Methylimidazol-2-yl)carboxaniido)phenoxy]-3-E-[2-(pyridin-2-yl)ethenyl]-1H-indazole]	49	0.02							plasma half-life (T1/2) [2, 12]: 13.1 h; AUC(0-t) [2, 13]: > 30300 ng·h/mL; concentration at 7 h [2, 14]: 2950 ng/mL
O=C(Nc1ccccc1)c1ccccc1Sc1ccc2c(/C=C/c3ccccn3)n[nH]c2c1 [Example 33(c), 6-[2-(Phenylcarbamoyl)phenylsulfanyl]-3-E-[2-(pyridin-2-yl)ethenyl]-1H-indazole]	16	0.28	697	1.2	183	3.0 h	7	5	Cmax [2, 8]: 505 ng/mL; Cmax [2, 9]: 94 ng/mL
O=C(NC1CC1)c1ccccc1Sc1ccc2c(/C=C/c3ccccn3)n[nH]c2c1 [Example 33(e), 6-[2-(Cyclopropylcarbamoyl)phenylsulfanyl]-3-E-[2-(pyridin-2-yl)ethenyl]-1H-1H-indazole]	54	1.7	14323	1.0	13290	0.7 h	94	12	
O=C(NCC(F)(F)F)c1ccccc1Sc1ccc2c(/C=C/c3ccccn3)n[nH]c2c1 [Example 33(f), 6-[2-(2,2,2-Trifluoroethylcarbamoyl)phenylsulfanyl]-3-E-[2-(pyridin-2-yl)ethenyl]-1H-indazole]	31	8	1887	2.4	1436	0.7 h	6	3	
O=C(NCc1cccc(F)c1)c1ccccc1Sc1ccc2c(/C=C/c3ccccn3)n[nH]c2c1 [Example 35(ff)]	31	0.11					72		AUC(0-t) [2, 15]: > 6300 ng·h/mL; Cmax ([2]; female, IP, 25 mg/kg, vehicle PEG400:H2O pH 2.3 30:70, read-out: Cmax): > 4000 ng/mL
CC(=O)c1ccc(C(=O)Nc2cccc(C(=O)c3ccc4c(/C=C/c5ccccn5)n[nH]c4c3)c2)s1 [Example 41(e), 6-[3-((5-Acetylthien-2-yl)carboxamido)benzoyl]-3-E-[2-(pyridin-2-yl)ethenyl]-1H-indazole]	22	0.22							AUClast [2, 4]: 4900 ng·h/mL; Cmax [2, 4]: 1154 ng/mL; plasma half-life (T1/2) [2, 4]: 1.6 h; AUClast [2, 5]: 302 ng·h/mL; Cmax [2, 5]: 113 ng/mL; plasma half-life (T1/2) [2, 5]: 1.6 h; concentration at 7 h [2, 6]: 301 ng/mL; concentration at 7 h [2, 7]: 7 ng/mL
Cc1cc(C(=O)Nc2cccc(C(=O)c3ccc4c(/C=C/c5ccccn5)n[nH]c4c3)c2)n[nH]1 [Example 41(g), 6-[3-((5-Methyl-1H-pyrazol-3-yl)carboxamido)benzoyl]-3-E-[2-(pyridin-2-yl)ethenyl]-1H-indazole]	52	0.1							AUClast [2, 4]: 1925 ng·h/mL; plasma half-life (T1/2) [2, 4]: 0.3 h; AUClast [2, 5]: 508 ng·h/mL; plasma half-life (T1/2) [2, 5]: 0.7 h; concentration at 7 h [2, 6]: 0 ng/mL; concentration at 7 h [2, 7]: 1 ng/mL
Cc1cc(C(=O)Nc2cccc(C(=O)c3ccc4c(/C=C/c5ccccn5)n[nH]c4c3)c2)on1 [Example 41(m), 6-[3-((3-Methylisoxazol-5-yl)carboxamido)benzoyl]-3-E-[2-(pyridin-2-yl)ethenyl]-1H-indazole]	0	0.75	1864	2.3	9	blq			Cmax [2, 9]: 5 ng/mL
O=C(c1cccc(NC(=O)c2ccc(Cl)s2)c1)c1ccc2c(/C=C/c3ccccn3)n[nH]c2c1 [Example 41(o), 6-[3-((5-Chlorothien-2-yl)carboxamido)benzoyl]-3-E-[2-(pyridin-2-yl)ethenyl]-1H-indazole]	94	0.05			14717	1.7 h	> 5000	427	AUC(0-t) [2, 15]: > 33800 ng·h/mL
C=CCn1nc(C)cc1C(=O)Nc1cccc(C(=O)c2ccc3c(/C=C/c4ccccn4)n[nH]c3c2)c1 [Example 41(t), 6-[3-((1-Allyl-3-methyl-1H-pyrazol-5-yl)carboxamido)benzoyl]-3-E-[2-(pyridin-2-yl)ethenyl]-1H-indazole]	87	0.06							plasma half-life (T1/2) [2, 12]: 4.0 h; AUC(0-t) [2, 13]: > 22500 ng·h/mL; concentration at 7 h [2, 14]: 1350 ng/mL
O=C(Nc1cccc(C(=O)c2ccc3c(-c4nc5ccccc5[nH]4)n[nH]c3c2)c1)c1ccccc1 [Example 42(b), 6-(3-Benzamidobenzoyl)-3-(1H-benzoimidazol-2-yl)-1H-indazole]	81	0.35							AUClast [2, 4]: 3207 ng·h/mL; plasma half-life (T1/2) [2, 4]: 3.0 h; AUClast [2, 5]: 4747 ng·h/mL; plasma half-life (T1/2) [2, 5]: 3.0 h; concentration at 7 h [2, 6]: 211 ng/mL; concentration at 7 h [2, 7]: 46 ng/mL
